Read-outs that look alike come from different tables or passages of the source.
Columns and labels:
hpao mRNA = test system: hpao mRNA
Method: In addition, a reverse-transcriptase-PCR (RT-PCR) experiment was performed to analyze the expression of hpao in OVCAR-3 and HL-60 cells. Briefly, about 10^6 to 10^7 cells were harvested and the total RNA of each sample was isolated by using the RNeasy miniprep kit (QIAGEN). A 1 μg mRNA sample was used for cDNA synthesis with the MMLV reverse transcriptase following the manufacturer's instructions provided with the Advantage RT-for-PCR Kit (Clontech). Human liver and placenta polyA mRNA were also obtained from Clontech. cDNA amplification was achieved following the SMART RACE™ cDNA Amplification method (Clontech). A pair of gene specific primers was generated based on the hpao cDNA sequence; hpao1 was the sense primer 5′-[…] ACCTTTC-3′ (SEQ ID NO:17), and hpao2R was the antisense primer 5′-[…] AGT-3′ (SEQ ID NO:18). Positive control amplimers for human G3PDH (glyceraldehyde-3-phosphate-dehydrogenase) were also used; the sense primer was 5′-[…] G-3′ (SEQ ID NO:19) and the antisense primer was 5′-[…] CT-3′ (SEQ ID NO:20). PCR was performed at 94° C. for 3 min, 25 cycles at 94° C. for 10 sec, 68° C. for 1 min, and 72° C. for 1 min.
(§1) In this Example, the method used to examine hpao mRNA production by cultured cells undergoing apoptosis is described.

[1] = test system: HL-60 human promyelogenous leukemia cells
Text: as §1

[2] = test system: OVCAR-3 human ovarian carcinoma cells; settings: approximately 50 μM, within 20 hrs
Text: as §1

mPAO = molecular target: T1, mPAO (Mus musculus, UniProt Q8C0L6); test: Oxygraph assay of O2 consumption, progress-curve analysis; assay type: biochemical, murine
T1 construct: the full length cDNA of mpao was released by Nde I and Hind III treatment, and ligated into Nde I and Hind III sites of pET29c; made in house; host or cells: E. coli BL21 GOLD (DE3), plasmid pET-MPAO (pET29c)
T1 sequence (Q8C0L6 whole entry E184K/L285S/R416L/R417S/Q419R/E451A/V490I/S491G/V497A): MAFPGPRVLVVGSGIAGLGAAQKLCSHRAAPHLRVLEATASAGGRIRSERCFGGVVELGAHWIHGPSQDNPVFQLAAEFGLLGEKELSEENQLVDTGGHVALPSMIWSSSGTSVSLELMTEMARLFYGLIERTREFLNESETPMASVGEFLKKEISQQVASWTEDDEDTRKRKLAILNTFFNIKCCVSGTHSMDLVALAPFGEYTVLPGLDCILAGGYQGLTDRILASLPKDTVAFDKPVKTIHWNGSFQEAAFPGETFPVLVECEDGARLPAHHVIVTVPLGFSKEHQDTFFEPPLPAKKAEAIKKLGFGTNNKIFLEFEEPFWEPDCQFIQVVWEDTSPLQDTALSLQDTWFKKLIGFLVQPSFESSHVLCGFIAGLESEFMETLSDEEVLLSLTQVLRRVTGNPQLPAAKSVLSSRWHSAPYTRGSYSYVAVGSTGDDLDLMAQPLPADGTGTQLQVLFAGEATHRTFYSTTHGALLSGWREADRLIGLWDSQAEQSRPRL
Method: Some assays (oxygraph assays) were carried out by directly monitoring O2 consumption in air-saturated buffer ([O2]=0.237 mM) or buffer saturated with pure O2 at 30° C. ([O2]=1.12 mM). The depletion of O2 was detected with a Yellow Springs Instruments, Inc. Model 53 Oxygen Monitor equipped with a Clark electrode. […] Following a published procedure (Goudar et al., Biochim. Biophys. Acta 1429:377-383 [1999]), the data were fitted to the integrated Mechaelis-Menton equation. The analyses were done using Maple VI (Windows 2000) software (Waterloo Maple, Inc.) running on a PC computer. […] Inhibition by the H2O2, formed as a product of polyamine oxidation by mPAO, was assessed by addition of 2 μL of a 30 mg/mL (30,000 units/mg) solution of catalase, after [O2] reached zero.
The catalase immediately converted each mole of H2O2 to 0.5 mol of O2 (since [O2]=1.12 mM for pure O2-saturated buffer, then [O2]=0.56 mM immediately after catalase addition). In the presence of catalase, O2 depletion should occur at 0.5× the rate as it does in the absence of catalase (unless H2O2 inhibition is operating). With catalase present, each molecule of O2 will be converted eventually to H2O (4-electron equivalents), rather than to H2O2 (2-electron equivalents).

## CC(=O)NCCCNCCCCNCCCN [N^1-acetyl-Spm, N^1-acetyl-spermine]
Hpao mRNA; HL-60 cells, 48 hr exposure to high concentrations
  hpao mRNA level: no change
Hpao mRNA; OVCAR-3 cells, very quickly after exposure
  hpao mRNA level: significant levels of hpao mRNA were induced
[1]; 24 hrs, all tested concentrations
  HL-60 cell survival: survived for 24 hrs
[1]; 72 hrs exposure, 0.05 mM
  HL-60 cells survived: 100%
[1]; 72 hrs exposure, 0.1 mM
  HL-60 cells killed: 30%
[1]; 72 hrs exposure, 0.2 mM
  HL-60 cells killed: 50%
[1]; 72 hrs exposure, 0.5 mM
  HL-60 cells killed: 80%
[2]
  OVCAR-3 cells killed: 100%
mPAO; Michaelis constant for O2, saturating amine substrate
  KQ: 180 ± 20 µM
mPAO; for O2, saturating amine substrate, pure O2-saturated buffer
  kcat/KQ: (4.4 ± 0.4) × 10^4 M^−1sec−^1
mPAO; true KS calculated from apparent KS′ with KS = KS′(1 + KO/[O2])
  KS(calc): 3.1 ± 0.3 µM
mPAO; true value, saturating substrate (3.7 mM), buffer saturated with pure O2 (1.12 mM)
  kcat: 8.0 ± 0.8 s⁻¹

Reference: US20050143472A1, “Novel treatment for pathologies associated with oxidative damage” (priority 2002, published 2005)
